Results: article PMC8963105, “A Novel Modulator of the Renin–Angiotensin System, Benzoylaconitine, Attenuates Hypertension by Targeting ACE/ACE2 in Enhancing Vasodilation and Alleviating Vascular Inflammation” (Frontiers in Pharmacology, 2022)

Columns and labels:
ACE = ACE protein expression in HUVECs (Western blot, immunofluorescence); assay type: cell-based, human; details: 24 h
Excerpt: Human umbilical vein endothelial cells (HUVECs) were isolated from umbilical cords as previously described ([Jaffe et al., 1973]). They were purchased from ATCC (cat# CRL-1444, Manassas, VA, United States) and cultured in endothelial cell medium (ECM, ScienCell, Carlsbad, CA, United States) supplemented with 5% FBS, 1% endothelial cell growth supplement, and 1% antibiotics (Sigma, St. Louis, MO, United States). Cells harvested between the third and tenth passages were used in the experiments. Cells were cultured until they were ∼80% confluent. […]
After treatment with different concentrations of BAC (Control, DMSO, 25, 50, and 100 μM, dissolved in 0.1% DMSO–DMEM) for 24 h, the cells were washed with PBS three times, fixed in 4% paraformaldehyde for 20 min, permeabilized with 0.3% Triton X-100 for 20 min, and then blocked with 5% BSA for 30 min at room temperature of 25°C. […] The samples were analyzed using a confocal laser scanning microscope (Zeiss LSM 510 META, Oberkochen, Germany).
(§1) The cell samples and tissue sample were collected and placed in ice rapidly. […] Protein concentration in cell lysates was measured using a Bio-Rad DC Protein Assay Kit […]. […]

[1] = test system: spontaneously hypertension rats (SHRs); experiment: acute experiment: real-time blood pressure after i.v. injection in SHRs; assay type: in vivo, rat
Protocol: The SHRs were surgically implanted with a catheter via the left femoral artery, vein, and stomach after anesthetizing with 2% pentobarbital sodium (40 mg kg^−1 i.p.,). A pressure sensor was inserted into the terminal of the arterial catheter and connected to a PowerLab system (ADInstruments, New South Wales, Australia) for real-time blood pressure monitoring.
(§2) All three MDAs (BAC, BMC, and BHC) were purchased from Nature-Standard Co., Ltd. (Shanghai, China) and their purities were all over 98%. The anti-hypertensive effects of MDAs were studied in both acute and chronic experiments. The 16-week-old SHRs were used in animal experiments, and each group had six rats. In the acute experiment, drug administration was via i.v. injection. For i.v. injection, the animals were randomly assigned into four groups: vehicle (0.1% DMSO–0.9% salt solution, n = 6), low-dose group (0.6 mg kg^−1 body weight, n = 6), medium-dose group (2 mg kg^−1 body weight, n = 6), and high-dose group (6 mg kg^−1 body weight, n = 6). The drug was administered using a venous catheter. In chronic experiments, the animals were randomly assigned into five groups: vehicle (5% Tween 80–0.9% salt solution, n = 6), captopril group (5 mg kg^−1 body weight, n = 6), low-dose group (3 mg kg^−1 body weight, n = 6), medium-dose group (10 mg kg^−1 body weight, n = 6), and high-dose group (30 mg kg^−1 body weight, n = 6). Oral administration with drug or 5% Tween 80–0.9% salt solution was carried out once a day, and continued for 14 days. The drugs were dissolved in 0.1% DMSO–0.9% salt solution for intravenous injection and in 5% Tween 80–0.9% salt solution for oral administration. Blood pressure was recorded in real time.
Real-time blood pressure level was monitored after drug treatment in the acute and chronic experiments. All animals were surgically implanted with a catheter in the left femoral artery. After connection to the monitor, all animals were placed at room temperature of 25°C for 0.5–1 h and the average blood pressure value was calculated based on a real-time blood pressure curve (10 s of every 30 s).

ACE2 = ACE2 expression in aorta of SHRs (Western blot, tissue immunofluorescence); assay type: in vivo, rat; details: oral 14 days
Excerpt: as §2, with “The drugs were dissolved in 0.1% DMSO–0.9% salt solution for intravenous injection and in 5% Tween 80–0.9% salt solution for oral administration.” left out, “time. […]” for “time.”
as §1

## CCN1CC2(COC)C(O)CC(OC)C34C5CC6(O)C(OC)C(O)C(O)(C5C6OC(=O)c5ccccc5)C(C(OC)C23)C14 (stereo not drawn) [BAC, Benzoylaconitine]
ACE; HUVECs, 25, 50, 100 μM
  protein expression of ACE: inhibit the expression of ACE
ACE; HUVECs, BAC 100 μM with or without proteasome inhibitor MG132 20 or 40 nM
  ACE protein degradation: promote ACE protein degradation
[1]; acute experiment, i.v. injection 0.6–6 mg kg^−1
  anti-hypertensive effect (in words): observable anti-hypertensive effects
[1]; i.v. injection, 0.6 mg kg^−1
  duration of anti-hypertensive effect: at least 30 min
[1]; i.v. injection, lowest dose 0.6 mg kg^−1, 1–5 min
  lowering of SBP, DBP, and MAP: more than 20 mmHg
ACE2
  ACE2 expression in the aorta: no effect
